This test relates to Aspergillus fumigatus. Nature of the test: Antifungal activity against Aspergillus fumigatus B5233 conidia after 16 hrs by fluorescence-based microplate assay at pH 7.2. Format: functional, organism-based. The conditions noted are these: B5233, 16 h.

As a reminder, the IC50 is the concentration that gives 50% inhibition. The low end stands for greater potency in that assay, the high end for weaker potency in that assay. `Cc1cc(C2CCCCC2)n(O)c(=O)c1` [CICLOPIROX] returned an IC50 of 4220 nM. In the case of `Cc1c(O)c(=O)ccn1C` [DEFERIPRONE] it was 1290 nM.
